In ChEMBL document CHEMBL6109046, “Recent advances in developing targeted protein degraders” (Eur J Med Chem, 2025):

Key:
[1] = PROTAC activity at SMARCA2/VHL in human MV4-11 cells assessed as protein degradation incubated for 18 hrs by Western blot analysis; assay type: cell-based; details: MV4-11, 18 h
[2] = PROTAC activity at human VHL/BRD4 in human MV4-11 cells assessed as degradation of BRD4 incubated for 16 hrs by Western blot analysis; assay type: cell-based; details: MV4-11, 16 h
[3] = PROTAC activity at VHL/BRD4 in human HeLa cells assessed as degradation of BRD4 incubated for 16 hrs by Western blot analysis; assay type: cell-based
[4] = target: Protein cereblon/Cyclin-dependent kinase 9 (Homo sapiens, UniProt P50750+Q96SW2); test: PROTAC activity at CRBN/CDK9 in human MV4-11 cells assessed as induction of CDK9 degradation measured for 3 days by Western blot analysis; assay type: cell-based
[5] = target: T1, Protein cereblon/Androgen receptor (Homo sapiens, UniProt P10275+Q96SW2); test: PROTAC activity at CRBN/AR in human VCaP cells assessed as induction of AR degradation incubated for 24 hrs by Western blot analysis; assay type: cell-based
[6] = target: von Hippel-Lindau disease tumor suppressor/Tyrosine-protein kinase BTK; test: PROTAC activity at VHL/BTK in human THP-1 cells assessed as induction of BTK degradation incubated for 24 hrs by immunoblotting analysis
[7] = target: Protein cereblon/Poly [ADP-ribose] polymerase 1 (Homo sapiens, UniProt P09874+Q96SW2); test: PROTAC activity at CRBN/PARP1 in human MDA-MB-231 cells assessed as degradation of PARP1 measured after 24 hrs by Western blot analysis; assay type: cell-based
[8] = target: von Hippel-Lindau disease tumor suppressor/Bromodomain-containing protein 4 (Homo sapiens, UniProt O60885+P40337); test: PROTAC activity at human VHL/BRD4 in human HeLa cells assessed as degradation of BRD4 incubated for 24 hrs by Western blot analysis; assay type: cell-based
[9] = target: Proprotein convertase subtilisin/kexin type 9 (Homo sapiens, UniProt Q8NBP7); test: Binding affinity to PCSK9 (unknown origin) assessed as inhibition constant
[10] = Downregulation of induced PCSK9 expression in HEK293 cells by Western blot analysis; assay type: functional, cell-based; details: Homo sapiens
[11] = target: T1, Protein cereblon/Androgen receptor; test: PROTAC activity at AR/CRBN in human LNCaP cells assessed as protein degradation incubated for 24 hrs by Western blot analysis; assay type: cell-based
[12] = target: von Hippel-Lindau disease tumor suppressor/Bromodomain-containing protein 9 (Homo sapiens, UniProt Q9H8M2+P40337); test: PROTAC activity at VHL/BRD9 in human HeLa cells assessed as protein degradation by Western blot analysis; assay type: cell-based
von Hippel-Lindau disease tumor suppressor/Bromodomain-containing protein 9, sequence (Q9H8M2 whole entry): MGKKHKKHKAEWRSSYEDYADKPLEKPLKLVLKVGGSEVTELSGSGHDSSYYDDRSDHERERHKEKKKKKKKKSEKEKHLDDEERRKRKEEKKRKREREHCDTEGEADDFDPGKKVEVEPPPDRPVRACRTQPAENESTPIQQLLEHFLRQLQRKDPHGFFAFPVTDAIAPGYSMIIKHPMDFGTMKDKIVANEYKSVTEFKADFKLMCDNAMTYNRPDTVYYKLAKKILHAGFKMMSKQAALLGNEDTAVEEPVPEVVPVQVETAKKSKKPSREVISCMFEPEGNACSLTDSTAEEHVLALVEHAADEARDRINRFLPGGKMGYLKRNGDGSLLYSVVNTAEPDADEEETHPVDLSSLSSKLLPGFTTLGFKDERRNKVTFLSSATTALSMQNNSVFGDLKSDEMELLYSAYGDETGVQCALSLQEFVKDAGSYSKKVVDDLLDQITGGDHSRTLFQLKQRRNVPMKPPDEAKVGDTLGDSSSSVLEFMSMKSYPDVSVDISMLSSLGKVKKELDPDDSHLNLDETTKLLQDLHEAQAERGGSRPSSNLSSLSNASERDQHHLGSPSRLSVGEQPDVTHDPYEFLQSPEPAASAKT
von Hippel-Lindau disease tumor suppressor/Bromodomain-containing protein 9, sequence (P40337 whole entry): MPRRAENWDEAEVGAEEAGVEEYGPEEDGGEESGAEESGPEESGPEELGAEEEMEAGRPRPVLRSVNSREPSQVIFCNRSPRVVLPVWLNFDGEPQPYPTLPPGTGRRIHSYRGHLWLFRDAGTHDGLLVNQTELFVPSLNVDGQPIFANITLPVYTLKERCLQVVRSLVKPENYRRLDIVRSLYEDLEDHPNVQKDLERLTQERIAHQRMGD

Protein cereblon/Cyclin-dependent kinase 9, sequence (P50750 whole entry): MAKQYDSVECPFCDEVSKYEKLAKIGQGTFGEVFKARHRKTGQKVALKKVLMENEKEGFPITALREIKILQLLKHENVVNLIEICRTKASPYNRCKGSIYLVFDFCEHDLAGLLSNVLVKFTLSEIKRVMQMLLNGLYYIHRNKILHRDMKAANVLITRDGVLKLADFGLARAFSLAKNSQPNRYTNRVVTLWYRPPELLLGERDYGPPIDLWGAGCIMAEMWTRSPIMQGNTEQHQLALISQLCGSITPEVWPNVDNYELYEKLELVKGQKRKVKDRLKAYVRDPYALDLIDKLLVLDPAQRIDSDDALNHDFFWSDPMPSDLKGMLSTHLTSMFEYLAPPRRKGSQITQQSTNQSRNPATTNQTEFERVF
Protein cereblon/Cyclin-dependent kinase 9, sequence (Q96SW2 whole entry): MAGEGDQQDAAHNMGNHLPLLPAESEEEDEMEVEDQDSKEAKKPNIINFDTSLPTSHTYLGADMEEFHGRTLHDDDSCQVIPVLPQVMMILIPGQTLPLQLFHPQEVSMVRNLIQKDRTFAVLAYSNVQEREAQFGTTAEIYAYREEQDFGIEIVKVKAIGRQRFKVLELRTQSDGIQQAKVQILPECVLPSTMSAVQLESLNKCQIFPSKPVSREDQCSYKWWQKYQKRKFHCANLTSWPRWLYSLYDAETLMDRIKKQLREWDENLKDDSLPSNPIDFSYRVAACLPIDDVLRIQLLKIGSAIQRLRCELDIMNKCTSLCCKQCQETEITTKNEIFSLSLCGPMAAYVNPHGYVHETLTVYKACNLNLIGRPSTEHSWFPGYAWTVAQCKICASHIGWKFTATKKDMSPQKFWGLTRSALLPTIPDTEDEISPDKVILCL
T1 sequence (P10275 whole entry): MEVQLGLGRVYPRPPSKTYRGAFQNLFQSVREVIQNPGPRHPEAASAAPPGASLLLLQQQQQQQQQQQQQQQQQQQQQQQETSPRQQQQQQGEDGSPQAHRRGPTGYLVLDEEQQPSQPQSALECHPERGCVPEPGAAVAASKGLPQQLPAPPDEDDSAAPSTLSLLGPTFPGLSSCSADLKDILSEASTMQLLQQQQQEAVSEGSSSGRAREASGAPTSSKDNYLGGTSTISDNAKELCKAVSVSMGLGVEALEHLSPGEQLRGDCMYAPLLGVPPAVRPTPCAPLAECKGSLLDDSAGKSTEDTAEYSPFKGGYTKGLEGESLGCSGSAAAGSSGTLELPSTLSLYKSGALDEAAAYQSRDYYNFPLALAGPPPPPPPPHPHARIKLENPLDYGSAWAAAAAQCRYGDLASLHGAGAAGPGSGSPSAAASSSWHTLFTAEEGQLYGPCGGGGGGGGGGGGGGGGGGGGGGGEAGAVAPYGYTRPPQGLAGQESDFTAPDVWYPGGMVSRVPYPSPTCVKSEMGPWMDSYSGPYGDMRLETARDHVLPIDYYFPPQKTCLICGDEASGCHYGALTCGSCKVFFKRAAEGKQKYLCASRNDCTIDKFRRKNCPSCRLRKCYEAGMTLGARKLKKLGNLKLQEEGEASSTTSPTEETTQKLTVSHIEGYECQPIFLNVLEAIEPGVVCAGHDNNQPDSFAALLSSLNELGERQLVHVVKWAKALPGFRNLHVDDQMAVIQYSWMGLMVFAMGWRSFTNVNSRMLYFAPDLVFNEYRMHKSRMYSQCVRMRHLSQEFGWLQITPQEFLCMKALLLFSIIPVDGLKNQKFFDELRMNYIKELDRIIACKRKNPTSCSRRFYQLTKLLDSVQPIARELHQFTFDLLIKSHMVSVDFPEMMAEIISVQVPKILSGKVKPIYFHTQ
T1 sequence (Q96SW2 whole entry): as the sequence (Q96SW2 whole entry) above
Proprotein convertase subtilisin/kexin type 9, sequence (Q8NBP7 31-152 limits assumed): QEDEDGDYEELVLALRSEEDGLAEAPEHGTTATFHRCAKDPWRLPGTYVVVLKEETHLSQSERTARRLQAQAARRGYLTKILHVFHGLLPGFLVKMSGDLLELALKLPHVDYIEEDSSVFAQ
Proprotein convertase subtilisin/kexin type 9, sequence (Q8NBP7 153-692 limits assumed): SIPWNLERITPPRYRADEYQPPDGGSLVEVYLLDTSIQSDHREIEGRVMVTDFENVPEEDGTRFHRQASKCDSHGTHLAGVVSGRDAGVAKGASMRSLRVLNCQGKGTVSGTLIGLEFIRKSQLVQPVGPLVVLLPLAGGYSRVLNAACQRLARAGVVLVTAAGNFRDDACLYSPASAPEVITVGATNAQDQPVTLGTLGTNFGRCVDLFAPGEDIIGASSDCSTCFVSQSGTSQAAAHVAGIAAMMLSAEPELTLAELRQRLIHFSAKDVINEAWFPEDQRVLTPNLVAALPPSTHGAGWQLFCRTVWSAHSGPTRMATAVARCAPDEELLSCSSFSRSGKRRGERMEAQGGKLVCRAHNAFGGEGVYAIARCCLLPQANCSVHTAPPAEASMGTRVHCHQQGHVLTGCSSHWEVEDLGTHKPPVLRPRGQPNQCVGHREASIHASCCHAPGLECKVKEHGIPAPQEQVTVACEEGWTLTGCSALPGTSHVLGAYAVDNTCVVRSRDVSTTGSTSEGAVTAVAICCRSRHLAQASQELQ
von Hippel-Lindau disease tumor suppressor/Bromodomain-containing protein 4, sequence (P40337 whole entry, looked up, other chains not shown): as the sequence (P40337 whole entry) above
Protein cereblon/Poly [ADP-ribose] polymerase 1, sequence (P09874 whole entry): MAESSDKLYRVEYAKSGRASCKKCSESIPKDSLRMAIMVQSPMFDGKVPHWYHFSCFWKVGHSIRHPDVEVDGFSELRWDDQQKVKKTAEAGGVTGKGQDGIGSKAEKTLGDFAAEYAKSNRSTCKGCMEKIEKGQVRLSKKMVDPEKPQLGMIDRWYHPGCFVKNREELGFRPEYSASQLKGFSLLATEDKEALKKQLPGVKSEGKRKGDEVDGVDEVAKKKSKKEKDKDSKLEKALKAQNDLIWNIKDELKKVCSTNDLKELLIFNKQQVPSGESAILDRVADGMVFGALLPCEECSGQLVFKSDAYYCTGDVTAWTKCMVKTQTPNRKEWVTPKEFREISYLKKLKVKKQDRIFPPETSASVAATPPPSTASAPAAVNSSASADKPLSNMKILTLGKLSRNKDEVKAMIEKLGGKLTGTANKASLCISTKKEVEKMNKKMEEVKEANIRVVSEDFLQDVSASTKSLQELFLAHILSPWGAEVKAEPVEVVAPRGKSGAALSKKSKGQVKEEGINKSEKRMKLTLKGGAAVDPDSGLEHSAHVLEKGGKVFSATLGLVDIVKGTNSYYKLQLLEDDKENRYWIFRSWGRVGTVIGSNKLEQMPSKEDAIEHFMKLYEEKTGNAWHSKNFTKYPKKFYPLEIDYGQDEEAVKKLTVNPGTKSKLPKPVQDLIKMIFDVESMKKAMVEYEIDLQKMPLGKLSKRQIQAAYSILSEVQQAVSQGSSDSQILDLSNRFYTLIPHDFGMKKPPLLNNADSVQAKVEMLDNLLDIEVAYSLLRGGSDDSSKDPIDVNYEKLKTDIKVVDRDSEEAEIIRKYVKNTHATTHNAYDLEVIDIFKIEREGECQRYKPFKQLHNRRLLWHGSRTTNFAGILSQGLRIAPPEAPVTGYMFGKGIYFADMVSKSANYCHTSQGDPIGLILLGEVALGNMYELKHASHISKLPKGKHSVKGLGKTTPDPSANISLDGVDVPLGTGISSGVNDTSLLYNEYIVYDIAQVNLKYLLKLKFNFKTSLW
Protein cereblon/Poly [ADP-ribose] polymerase 1, sequence (Q96SW2 whole entry): as the sequence (Q96SW2 whole entry) above

Question: Which DC50 [1] does the source give for Cc1ncsc1-c1ccc([C@H](CC[C@H](C)CCN2CCC(c3ccc4c(c3)n(C3CCCC3)c3nc(=O)c5c(Br)cccc5n43)CC2)NC(=O)[C@@H]2C[C@@H](O)CN2C(=O)[C@@H](NC(=O)C2(F)CC2)C(C)(C)C)cc1 here?
Answer: 1 nM

Question: For Cc1sc2c(c1C)C(c1ccc(Cl)cc1)=N[C@@H](CC(=O)NCCCOCCOCCOCCCNC(=O)COc1c(Br)cc(/C=C3\C(=O)Nc4ccc(I)cc43)cc1Br)c1nnc(C)n1-2 (stereo in doubt), which DC50 [2] is on record?
Answer: 900 nM

Question: Which DC50 [1] does the source give for Cc1ncsc1-c1ccc([C@H](C)NC(=O)[C@@H]2C[C@@H](O)CN2C(=O)[C@H](c2cc(N3CCC(CN4CCC(OC5CC(Oc6cc(N7[C@H]8CC[C@H]7CN(c7cc(-c9ccccc9O)nnc7N)C8)ccn6)C5)CC4)CC3)no2)C(C)C)cc1 (some centres undefined) here?
Answer: 0.03 nM

Question: For Cc1sc2c(c1C)C(c1ccc(Cl)cc1)=N[C@@H](CC(=O)NCCCCOc1ccc(Oc3ccc(N(Cc4ccccc4)C(=O)CCl)cc3)cc1)c1nnc(C)n1-2, which DC50 [3] is on record?
Answer: < 10000 nM

Question: For Cc1sc2c(c1C)C(c1ccc(Cl)cc1)=N[C@@H](CC(=O)NCCCCCCCCCCNC(=O)[C@@]13CCC(C)(C)C[C@@H]1[C@@H]1C(=O)C=C4[C@]5(C)C=C(C#N)C(=O)C(C)(C)[C@H]5CC[C@]4(C)[C@@]1(C)CC3)c1nnc(C)n1-2, which DC50 [4] is on record?
Answer: < 200 nM

Question: Which DC50 [3] does the source give for COC(=O)C[C@H]1[C@]2(C)C3=C(C)[C@H](c4ccoc4-c4ccc(C(=O)NCCCNC(=O)C[C@@H]5N=C(c6ccc(Cl)cc6)c6c(sc(C)c6C)-n6c(C)nnc65)cc4)C[C@H]3O[C@@H]2[C@@H]2OC(=O)[C@]3(C)C=CC(=O)[C@@]1(C)[C@@H]23 here?
Answer: 36000 nM

Question: For COc1cc(O[C@H]2C(C)(C)[C@H](NC(=O)c3ccc(N4CCC(CN5CCN(c6ccc(C(=O)N[C@H]7CCC(=O)NC7=O)c(F)c6)CC5)CC4)cc3)C2(C)C)ccc1C#N [LUXDEGALUTAMIDE], which DC50 [5] is on record?
Answer: < 1 nM

Question: With Cc1sc2c(c1C)C(c1ccc(Cl)cc1)=N[C@H](CC(=O)NCCCn1cc(CNC(=O)c3ccc(S(=O)(=O)N(CC#N)C(=O)CC45CC6CC(CC(C6)C4)C5)cc3)nn1)c1nnc(C)n1-2 as the molecule, how does the DC50 [2] read?
Answer: 3000 nM

Question: Which DC50 [1] does the source give for Cc1ncsc1-c1ccc(CNC(=O)[C@@H]2C[C@@H](O)CN2C(=O)[C@@H](NC(=O)C2(F)CC2)C(C)(C)C)c(OCCOc2ccc(CN3CCN(c4cc(-c5ccccc5O)nnc4N)CC3)cc2)c1 here?
Answer: 6 nM

Question: With CN[C@@H](C)C(=O)N[C@H](C(=O)N1Cc2cc(OCCOCCOCCOCCOCCOC(=O)N3CCC[C@H](n4nc(-c5ccc(Oc6ccc(F)cc6F)cc5)c(C(N)=O)c4N)C3)ccc2C[C@@H]1C(=O)NC1CCCc2ccccc21)C(C)(C)C (some centres undefined) as the molecule, how does the DC50 [6] read?
Answer: 182 nM

Question: With COc1ccc(C2=N[C@H](c3ccc(Cl)cc3)[C@H](c3ccc(Cl)cc3)N2C(=O)N2CCN(CC(=O)NCCOCCOCCOCCOCCn3cc(-c4ccc(-n5cc6cccc(C(N)=O)c6n5)cc4)nn3)C(=O)C2)c(OC(C)C)c1 as the molecule, how does the DC50 [7] read?
Answer: < 10000 nM

Question: Which DC50 [8] does the source give for Cc1sc2c(c1C)C(c1ccc(Cl)cc1)=NC(CC(=O)NCCOCCOCCNC(=O)c1cccc(S(=O)(=O)Nc3ccc(C)c4c(C#N)c[nH]c34)c1)c1nnc(C)n1-2 (centres undefined) here?
Answer: 10800 nM

Question: With Cc1sc2c(c1C)C(c1ccc(Cl)cc1)=N[C@@H](CC(=O)NCCCCOc1ccc(C3CC(c4ccc(Br)cc4)=NN3C(=O)CCl)cc1)c1nnc(C)n1-2 (some centres undefined) as the molecule, how does the DC50 [3] read?
Answer: < 10000 nM

Question: Which DC50 [4] does the source give for COc1cc(/C=C/C(=O)N2CCC=CC2=O)cc(OC)c1OCCN1CCN(C(=O)CN2CCC(C(=O)Nc3ncc(SCc4ncc(C(C)(C)C)o4)s3)CC2)CC1 here?
Answer: 9 nM

Question: With CC(C)(C)OC(=O)N=C(NCCC[C@H](NC(=O)OC(C)(C)C)C(=O)NCCOCCOc1cc2c(cc1Oc1ccc(-c3ccc(C(=O)O)cc3)c(F)c1)[C@@](C)(CC(=O)Nc1nccs1)NCC2)NC(=O)OC(C)(C)C as the molecule, how does the Ki [9] read?
Answer: 107 nM

Question: And the IC50 [10]?
Answer: 3400 nM

Question: For CC1(C)[C@H](NC(=O)c2ccc(OCC(=O)NCCCOCCOCCOCCCN(C(=O)CCl)C(C(=O)NCc3ccccc3)c3ccc(Cl)c(Cl)c3)cc2)C(C)(C)[C@H]1Oc1ccc(C#N)c(Cl)c1 (some centres undefined), which DC50 [11] is on record?
Answer: < 10000 nM

Question: For CCOC(=O)C[C@@H](c1ccc(C)c(CN2C[C@@H](C)Oc3ccccc3S2(=O)=O)c1)c1cc(OCCNC(=O)CNC(=O)C[C@@H]2N=C(c3ccc(Cl)cc3)c3c(sc(C)c3C)-n3c(C)nnc32)c2c(c1)nnn2C, which DC50 [4] is on record?
Answer: < 500 nM

Question: With COc1cc(-c2cn(C)c(=O)c3cnccc23)c(OC)cc1CN1CCC(OCCCCCC(=O)N2CCN(c3ccc4c(NCCN)nc(C5(c6ccc(Cl)cc6)CCCCC5)nc4c3)CC2)CC1 as the molecule, how does the DC50 [12] read?
Answer: 90 nM
